Experimental data as given in publication PMC2848589, “Raltegravir Is a Potent Inhibitor of XMRV, a Virus Implicated in Prostate Cancer and Chronic Fatigue Syndrome” (PLoS ONE, 2010).
Where a name gives a salt, the structure may show the parent alone.

Legend:
HIV-1LAI = assay: HIV-1 replication in PHA-stimulated peripheral blood mononuclear cells; format: cell-based; details: Human immunodeficiency virus 1, PBMC; for EC50: read-out: HIV-1 in PBM cells EC50; for EC90: read-out: HIV-1 in PBM cells EC90
Experimental: (§1) We tested a total of 45 compounds belonging to different classes of HIV-1 inhibitors, and a few inhibitors of viruses other than retroviruses, for their ability to inhibit XMRV replication in cultured cells. LNCaP and MCF-7 cells were chosen for their ability to support robust in vitro replication of XMRV. […] To determine if a reduction in viral release might be due to toxicity of the compound and not due to specific antiretroviral activity, cellular morphology was monitored every 24 h by microscopic examination, and an MTT [3-(4,5-dimethylthiazol-2-yl)-2,5-diphenyltetrazolium bromide] colorimetric assay was used to measure potential cytotoxicity produced by the compounds. Supernatants were collected every 24 h and assayed for viral release by measuring RT activity. […] For comparison purposes, all compounds evaluated in these studies were also tested against HIV-1LAI in primary human lymphocytes.
(§2) Each well was carefully monitored for signs of cellular toxicity due to the inhibitors by microscopic observation every 24 h. In addition, cell viability was measured using the CellTiter 96 AQueous One Solution cell proliferation assay according to the manufacturer (Promega, Madison, Wis). Viral release from the cells was assayed by measuring RT activity in the supernatant. For this, supernatant from each well was collected every 24 h and frozen at −20°C until it was analyzed by RT assay for viral release as described previously. In brief, oligo(dT)·poly(rA) primer-template assays were performed in the presence of radiolabeled [α-^32P]dTTP and Mn^2+. After incubating the viral supernatants with the RT reaction mix for 1 h at 37°C, samples were spotted onto DE81 DEAE cellulose paper (Whatman) and unincorporated label washed away with 2× SSC (1× SSC = 0.15 M NaCl and 0.015 M sodium citrate). […] Inhibition of viral release as measured on day 6 after inoculation was averaged over 3–5 experiments and plotted. The antiviral EC50 and cytotoxic concentrations (CC50,) was determined from the concentration–response curve using the median effect method. HIV-1 replication assays were performed as described previously using peripheral blood mononuclear cells (PBMC) obtained from the American Red Cross, Atlanta, GA, that were stimulated with phytohemagglutinin (PHA) for 72 hr.

[1] = Cytotoxicity in MCF-7 cells (MTT / CellTiter 96 AQueous One); format: cell-based, human; details: human
Experimental: as §1, §2

[2] = Cytotoxicity in PBM cells; format: cell-based; details: human, read-out: HIV-1 in PBM cells CC50
Experimental: as §2

XMRV [3] = assay: XMRV replication in LNCaP cells (viral release by RT activity in supernatant); format: cell-based; details: for EC50: read-out: EC50 in LNCaP cells; for EC90: read-out: EC90 in LNCaP cells; for inhibition at 100 µM: read-out: inhibition of XMRV replication
Experimental: as §1
Viral release from XMRV-infected LNCaP cells in the presence of increasing concentrations of (A) ZDV (B) TDF (C) RAL and (D) L-000870812, was determined by measuring RT activity in the supernatants. […] Cell viability was checked by microscopy, quantified by the MTT assay, and represented by shaded bars. Data for each compound were derived from an average of at least three independent experiments, each performed in duplicate.
293T cells (ATCC, CRL-11268) were transfected with pXMRV1, an infectious clone of XMRV [2]. Virus released in the supernatant was harvested and titrated by inoculating MCF-7 cells, a breast cancer cell line (ATCC, HTB-22) at 70% confluence, with a series of ten-fold dilutions of XMRV in serum-free medium, followed 36–48 hrs later by fixation of cells in paraformaldehyde and processing for immunofluorescence using a rabbit antiserum developed against inactivated XMRV [2]. […] Virus was diluted in serum-free medium and used to inoculate cells at a multiplicity of infection (MOI) of approximately 3, in the presence of various antiviral compounds as described below. LNCaP, a prostate cancer cell line (ATCC, CRL-1740) and MCF-7 cells were grown to about 50% confluence in DMEM containing 10% heat inactivated fetal bovine serum, […]. Cells were washed twice with Dulbecco's phosphate buffered saline (DPBS, Gibco), and incubated with the viral inoculum for 90 min at 37°C in the presence of 95% air and 5% CO2, cells were washed twice with DPBS, detached with Trypsin-EDTA (0.25% Trypsin; Cellgro), and counted. One thousand cells were added to each well of a 96-well plate, along with an equal volume of medium containing the retroviral inhibitor at 2-fold the desired concentration. […] For controls, wells containing water or DMSO at appropriate concentrations were used.
Each well was carefully monitored for signs of cellular toxicity due to the inhibitors by microscopic observation every 24 h. In addition, cell viability was measured using the CellTiter 96 AQueous One Solution cell proliferation assay according to the manufacturer (Promega, Madison, Wis). Viral release from the cells was assayed by measuring RT activity in the supernatant. For this, supernatant from each well was collected every 24 h and frozen at −20°C until it was analyzed by RT assay for viral release as described previously. In brief, oligo(dT)·poly(rA) primer-template assays were performed in the presence of radiolabeled [α-^32P]dTTP and Mn^2+. After incubating the viral supernatants with the RT reaction mix for 1 h at 37°C, samples were spotted onto DE81 DEAE cellulose paper (Whatman) and unincorporated label washed away with 2× SSC (1× SSC = 0.15 M NaCl and 0.015 M sodium citrate).

XMRV [4] = assay: XMRV replication in MCF-7 cells (viral release by RT activity in supernatant); format: cell-based; details: for EC50 / EC90: MCF7, 144 h; for EC50: read-out: XMRV in MCF-7 cells EC50; for EC90: read-out: XMRV in MCF-7 cells EC90; for therapeutic index (TI, the ratio of CC50/EC50): XMRV, MCF-7 cells; for activity against XMRV (in words): tested up to 100 µM, Figure 1
MCF-7 cells = assay: Cytotoxicity in MCF-7 cells (MTT / CellTiter 96 AQueous One); format: cell-based, human
Experimental: as §1, §2

[5] = peripheral blood mononuclear (PBM) cells
[6] = MCF-7 cells, read-out: XMRV in MCF-7 cells CC50
[7] = XMRV-infected MCF-7 cells, RT activity in supernatant, day 6

SMILES: Cc1cn([C@H]2C[C@H](N=[N+]=[N-])[C@@H](CO)O2)c(=O)[nH]c1=O [3'-Azido-3'-deoxythymidine (ZDV), 3'-Azido-3'-deoxythymidine]
- EC50 (HIV-1LAI): 0.0052 µM
- EC90 (HIV-1LAI): 0.036 µM
- CC50 [1]: 65 µM
- CC50 [2, 5]: > 100 µM
- EC50 (XMRV [3]; LNCaP): 0.14 µM
- EC90 (XMRV [3]; LNCaP): 1.1 µM
- EC50 (XMRV [4]): 0.11 µM
- EC90 (XMRV [4]): 7.3 µM
- therapeutic index (TI, the ratio of CC50/EC50) (XMRV [4]): 591

SMILES: Cc1cn([C@H]2C[C@H](F)[C@@H](CO)O2)c(=O)[nH]c1=O [3'-Fluoro-3'-deoxythymidine (FLT), 3'-Fluoro-3'-deoxythymidine]
- EC50 (HIV-1LAI): 0.00018 µM
- EC90 (HIV-1LAI): 0.005 µM
- CC50 [1]: 75.8 µM
- CC50 [2, 5]: 13.8 µM
- inhibition at 100 µM (XMRV [3]; LNCaP): > 70%
- EC50 (XMRV [4]): 7.9 µM
- EC90 (XMRV [4]): > 100 µM

SMILES: Nc1nc2c(ncn2C2COC(CO)O2)c(=O)[nH]1 [9-(β-D-1,3-Dioxolan-4-yl)guanine (DXG), 9-(β-D-1,3-Dioxolan-4-yl)guanine]
- CC50 (MCF-7 cells): > 100 µM
- activity against XMRV (in words) (XMRV [4]): essentially inactive

SMILES: Nc1nc2c(ncn2[C@H]2C=C[C@@H](CO)C2)c(=O)[nH]1 [(-)-carbovir (CBV), (-)-carbovir]
- CC50 (MCF-7 cells): > 100 µM
- inhibition of XMRV replication (XMRV [3]; 100 µM, see Table S1 (cell line not given)): greater than 70%

SMILES: Nc1ccn([C@H]2C=C[C@@H](CO)O2)c(=O)n1 [D4C]
- CC50 (MCF-7 cells): > 100 µM

SMILES: Cc1nnc(C(=O)NC(C)(C)c2nc(C(=O)NCc3ccc(F)cc3)c(O)c(=O)n2C)o1 [Raltegravir (RAL, MK-0518), Raltegravir]
- EC50 (HIV-1LAI): 0.0014 µM
- EC90 (HIV-1LAI): 0.0089 µM
- CC50 [1, 6]: 92.3 µM
- CC50 [2]: > 100 µM
- EC50 (XMRV [3]; XMRV-infected LNCaP cells): 0.03 µM
- EC90 (XMRV [3]; XMRV-infected LNCaP cells): 0.46 µM
- EC50 (XMRV [4]; [7]): 0.005 µM
- EC90 (XMRV [4]; [7]): 3.5 µM
- therapeutic index (TI, the ratio of CC50/EC50) (XMRV [4]): 18,460

SMILES: Cc1cn([C@H]2C=C[C@@H](CO)O2)c(=O)[nH]c1=O [Stavudine (D4T), Stavudine]
- EC50 (HIV-1LAI): 0.09 µM
- EC90 (HIV-1LAI): 0.49 µM
- CC50 [1, 6]: > 100 µM
- CC50 [2, 5]: > 100 µM
- inhibition at 100 µM (XMRV [3]; LNCaP): > 70%
- EC50 (XMRV [4]): 75.6 µM
- EC90 (XMRV [4]): > 100 µM

SMILES: Cc1cn([C@@H]2C[C@@H](O)[C@H](CO)O2)c(=O)[nH]c1=O [Telbivudine (LdT), Telbivudine]
- EC50 (HIV-1LAI): > 100 µM
- EC90 (HIV-1LAI): > 100 µM
- CC50 [1]: 88.3 µM
- CC50 [2, 5]: > 100 µM
- EC50 (XMRV [4]): > 100 µM
- EC90 (XMRV [4]): > 100 µM

SMILES: C[C@H](Cn1cnc2c(N)ncnc21)OCP(=O)(O)O [Tenofovir (TNV), Tenofovir]
- EC50 (HIV-1LAI): 0.88 µM
- EC90 (HIV-1LAI): 6.6 µM
- CC50 [1, 6]: 79.6 µM
- CC50 [2, 5]: > 100 µM
- EC50 (XMRV [4]): 82.9 µM
- EC90 (XMRV [4]): > 100 µM
- activity against XMRV (in words) (XMRV [4]): ineffective

SMILES: CC(C)OC(=O)OCOP(=O)(CO[C@H](C)Cn1cnc2c(N)ncnc21)OCOC(=O)OC(C)C [Tenofovir disoproxil fumarate (TDF), Tenofovir disoproxil fumarate]
- EC50 (HIV-1LAI): 0.016 µM
- EC90 (HIV-1LAI): 0.18 µM
- CC50 [1]: 52.2 µM
- CC50 [2, 5]: 17.8 µM
- EC50 (XMRV [3]; LNCaP): 0.9 µM
- EC90 (XMRV [3]; LNCaP): 4.2 µM
- EC50 (XMRV [4]): 0.24 µM
- EC90 (XMRV [4]): 15.3 µM
- therapeutic index (TI, the ratio of CC50/EC50) (XMRV [4]): 218

SMILES: CCC[C@@]1(CCc2ccccc2)CC(O)=C([C@H](CC)c2cccc(NS(=O)(=O)c3ccc(C(F)(F)F)cn3)c2)C(=O)O1 [Tipranavir]
- EC50 (HIV-1LAI): 0.035 µM
- EC90 (HIV-1LAI): 0.17 µM
- CC50 [1, 6]: 75.6 µM
- CC50 [2, 5]: > 100 µM
- EC50 (XMRV [4]): > 100 µM
- EC90 (XMRV [4]): > 100 µM
- activity against XMRV (in words) (XMRV [4]): essentially ineffective

SMILES: Nc1ncnc2c1ncn2[C@@H]1O[C@H](CO)[C@@H](O)[C@@H]1O [Vidarabine (ara-A), Vidarabine]
- EC50 (HIV-1LAI): 30.6 µM
- EC90 (HIV-1LAI): > 100 µM
- CC50 [1]: 50.5 µM
- CC50 [2, 5]: > 100 µM
- EC50 (XMRV [4]): 4.4 µM
- EC90 (XMRV [4]): > 100 µM

SMILES: O=c1[nH]cnc2c1ncn2[C@H]1CC[C@@H](CO)O1 [Videx (DDI), Videx]
- EC50 (HIV-1LAI): 0.29 µM
- EC90 (HIV-1LAI): 2.2 µM
- CC50 [1]: > 100 µM
- CC50 [2, 5]: > 100 µM
- EC50 (XMRV [4]): > 100 µM
- EC90 (XMRV [4]): > 100 µM
- activity against XMRV (in words) (XMRV [4]): essentially inactive

SMILES: Nc1ccn(C[C@@H](CO)OCP(=O)(O)O)c(=O)n1 [Vistide (HPMPC), Vistide]
- EC50 (HIV-1LAI): > 100 µM
- EC90 (HIV-1LAI): > 100 µM
- CC50 [1, 6]: > 100 µM
- CC50 [2, 5]: > 100 µM
- EC50 (XMRV [4]): 85.3 µM
- EC90 (XMRV [4]): > 100 µM

SMILES: Nc1ccn([C@H]2CC[C@@H](CO)O2)c(=O)n1 [Zalcitabine (ddC), Zalcitabine]
- EC50 (HIV-1LAI): 0.044 µM
- EC90 (HIV-1LAI): 0.31 µM
- CC50 [1]: 89.8 µM
- CC50 [2, 5]: > 100 µM
- EC50 (XMRV [4]): > 100 µM
- EC90 (XMRV [4]): > 100 µM
